Laboratory results published in patent publication US10670605B2, “Cysteine reactive probes and uses thereof” (The Scripps Research Institute, priority 2015, dated 2020).

Tests used:
Test in all cases: Competitive isoTOP-ABPP, cell lysates
Assay type in all cases: binding
[1] = target: MLTK C22 (Q9NYL2) (Homo sapiens, UniProt Q9NYL2); settings: for isoTOP-ABPP reactivity ratio, Q9NYL2_C22 / isoTOP-ABPP reactivity profile ratio, Q9NYL2_C22: 500 μm, in-vitro_ramos_231
[2] = target: T1, ACAT1 C119 (P24752) (Homo sapiens, UniProt P24752); settings: for isoTOP-ABPP reactivity ratio, P24752_C119 / isoTOP-ABPP reactivity profile ratio, P24752_C119: 500 μm; for isoTOP-ABPP ratio P24752_C119: 500 μM, invitro
T1 sequence (P24752 34-427): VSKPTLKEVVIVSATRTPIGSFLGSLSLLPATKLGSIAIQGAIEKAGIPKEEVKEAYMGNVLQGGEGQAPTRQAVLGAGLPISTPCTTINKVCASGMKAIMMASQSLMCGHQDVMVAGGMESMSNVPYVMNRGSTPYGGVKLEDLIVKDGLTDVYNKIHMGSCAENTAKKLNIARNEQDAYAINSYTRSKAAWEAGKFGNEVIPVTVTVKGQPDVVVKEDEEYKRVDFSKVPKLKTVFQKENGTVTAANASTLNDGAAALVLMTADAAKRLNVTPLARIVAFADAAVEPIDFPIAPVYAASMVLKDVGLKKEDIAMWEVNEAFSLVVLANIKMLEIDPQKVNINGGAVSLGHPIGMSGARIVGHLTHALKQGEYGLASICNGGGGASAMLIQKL

[3] = target: CASP8 C360 (Q14790) (Homo sapiens, UniProt Q14790); settings: for isoTOP-ABPP reactivity ratio, Q14790_C360: 500 μm
[4] = target: EZH2 C503 (Q15910) (Homo sapiens, UniProt Q15910); settings: for isoTOP-ABPP reactivity profile ratio, Q15910_C503: in-vitro_ramos_231
EZH2 C503 (Q15910), sequence (Q15910 whole entry): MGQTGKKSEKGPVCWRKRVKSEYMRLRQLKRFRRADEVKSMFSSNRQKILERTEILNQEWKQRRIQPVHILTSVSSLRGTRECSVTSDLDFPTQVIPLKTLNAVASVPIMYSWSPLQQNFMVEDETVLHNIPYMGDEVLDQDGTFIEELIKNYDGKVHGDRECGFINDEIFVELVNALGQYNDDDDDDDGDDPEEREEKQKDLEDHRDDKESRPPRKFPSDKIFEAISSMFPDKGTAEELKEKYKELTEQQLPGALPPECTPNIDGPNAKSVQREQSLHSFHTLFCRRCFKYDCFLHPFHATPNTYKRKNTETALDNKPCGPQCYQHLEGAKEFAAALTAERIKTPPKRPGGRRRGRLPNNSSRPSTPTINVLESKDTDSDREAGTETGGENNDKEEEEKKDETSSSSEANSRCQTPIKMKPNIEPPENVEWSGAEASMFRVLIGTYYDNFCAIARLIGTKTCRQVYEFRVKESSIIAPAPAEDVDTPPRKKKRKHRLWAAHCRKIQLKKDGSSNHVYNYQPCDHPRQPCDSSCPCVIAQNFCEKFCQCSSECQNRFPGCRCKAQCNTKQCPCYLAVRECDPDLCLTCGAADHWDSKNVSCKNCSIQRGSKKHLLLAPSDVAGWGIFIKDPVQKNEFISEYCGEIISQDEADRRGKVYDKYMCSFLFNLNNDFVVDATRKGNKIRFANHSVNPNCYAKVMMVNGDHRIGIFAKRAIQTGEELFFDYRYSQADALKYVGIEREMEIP
EZH2 C503 (Q15910), sequence (O75530 whole entry partner): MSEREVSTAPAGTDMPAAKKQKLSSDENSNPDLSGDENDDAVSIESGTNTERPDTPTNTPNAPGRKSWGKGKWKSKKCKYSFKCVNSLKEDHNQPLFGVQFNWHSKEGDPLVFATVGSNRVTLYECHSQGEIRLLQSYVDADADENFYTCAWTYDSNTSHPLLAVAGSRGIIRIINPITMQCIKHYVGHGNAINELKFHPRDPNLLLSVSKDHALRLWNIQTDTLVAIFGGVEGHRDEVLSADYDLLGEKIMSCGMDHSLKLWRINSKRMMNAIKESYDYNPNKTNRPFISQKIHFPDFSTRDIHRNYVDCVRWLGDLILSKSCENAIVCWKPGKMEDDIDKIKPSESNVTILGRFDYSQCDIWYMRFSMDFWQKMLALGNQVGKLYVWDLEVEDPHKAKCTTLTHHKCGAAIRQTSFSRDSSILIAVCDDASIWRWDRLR
EZH2 C503 (Q15910), sequence (Q15022 whole entry partner): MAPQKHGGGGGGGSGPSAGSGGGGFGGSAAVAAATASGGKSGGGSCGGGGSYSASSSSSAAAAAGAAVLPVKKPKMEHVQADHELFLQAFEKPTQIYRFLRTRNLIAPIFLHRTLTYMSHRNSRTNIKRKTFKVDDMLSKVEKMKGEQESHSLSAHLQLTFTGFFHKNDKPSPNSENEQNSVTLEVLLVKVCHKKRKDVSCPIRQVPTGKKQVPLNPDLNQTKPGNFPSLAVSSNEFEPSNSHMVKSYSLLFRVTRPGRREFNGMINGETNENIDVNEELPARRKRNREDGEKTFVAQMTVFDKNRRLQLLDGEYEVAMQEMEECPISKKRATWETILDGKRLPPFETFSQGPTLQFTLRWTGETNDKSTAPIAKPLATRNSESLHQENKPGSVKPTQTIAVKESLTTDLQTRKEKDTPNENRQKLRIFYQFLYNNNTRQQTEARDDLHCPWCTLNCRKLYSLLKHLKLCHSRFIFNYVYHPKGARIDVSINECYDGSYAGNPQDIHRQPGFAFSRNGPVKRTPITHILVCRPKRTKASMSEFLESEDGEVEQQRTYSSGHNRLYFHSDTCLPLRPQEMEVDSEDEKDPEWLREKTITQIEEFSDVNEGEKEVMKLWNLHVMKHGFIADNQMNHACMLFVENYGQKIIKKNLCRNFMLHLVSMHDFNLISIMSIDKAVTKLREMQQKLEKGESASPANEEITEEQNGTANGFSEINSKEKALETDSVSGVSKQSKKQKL

MLTK C22 (Q9NYL2), sequence (Q9NYL2 whole entry): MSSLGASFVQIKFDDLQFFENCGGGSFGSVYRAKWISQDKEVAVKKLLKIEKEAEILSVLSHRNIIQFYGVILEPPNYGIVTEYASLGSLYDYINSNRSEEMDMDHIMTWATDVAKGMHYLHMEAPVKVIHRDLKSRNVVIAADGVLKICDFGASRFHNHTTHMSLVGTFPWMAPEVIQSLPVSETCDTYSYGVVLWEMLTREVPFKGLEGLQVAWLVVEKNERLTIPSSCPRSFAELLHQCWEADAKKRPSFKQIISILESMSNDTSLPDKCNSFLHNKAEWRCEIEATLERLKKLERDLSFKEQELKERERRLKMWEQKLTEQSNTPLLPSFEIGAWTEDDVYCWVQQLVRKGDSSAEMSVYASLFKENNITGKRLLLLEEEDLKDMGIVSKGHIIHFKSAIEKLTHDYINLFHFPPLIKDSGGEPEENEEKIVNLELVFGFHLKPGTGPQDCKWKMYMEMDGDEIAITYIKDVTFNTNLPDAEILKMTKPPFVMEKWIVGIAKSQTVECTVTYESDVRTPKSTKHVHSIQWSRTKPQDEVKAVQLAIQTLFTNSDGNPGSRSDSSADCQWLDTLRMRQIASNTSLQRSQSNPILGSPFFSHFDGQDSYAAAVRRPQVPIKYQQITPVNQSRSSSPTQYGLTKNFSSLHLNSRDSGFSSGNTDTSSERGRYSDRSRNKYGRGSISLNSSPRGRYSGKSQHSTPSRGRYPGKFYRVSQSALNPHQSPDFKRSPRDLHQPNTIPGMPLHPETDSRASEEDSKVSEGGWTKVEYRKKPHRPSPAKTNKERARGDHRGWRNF
CASP8 C360 (Q14790), sequence (Q14790 whole entry): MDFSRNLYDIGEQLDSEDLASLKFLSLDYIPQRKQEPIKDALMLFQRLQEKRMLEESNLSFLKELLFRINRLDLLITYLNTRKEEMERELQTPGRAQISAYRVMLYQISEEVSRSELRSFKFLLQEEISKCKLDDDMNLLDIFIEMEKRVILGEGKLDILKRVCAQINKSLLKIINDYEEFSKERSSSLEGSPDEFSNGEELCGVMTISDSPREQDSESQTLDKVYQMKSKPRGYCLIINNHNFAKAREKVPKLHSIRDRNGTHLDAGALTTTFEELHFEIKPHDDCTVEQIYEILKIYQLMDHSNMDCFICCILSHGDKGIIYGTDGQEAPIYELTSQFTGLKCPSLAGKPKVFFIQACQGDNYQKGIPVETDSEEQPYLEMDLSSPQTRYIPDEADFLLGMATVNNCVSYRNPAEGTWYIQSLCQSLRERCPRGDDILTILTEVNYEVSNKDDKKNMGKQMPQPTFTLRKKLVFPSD

With `O=C(CCl)N(Cc1ccc(F)cc1)C12CC3CC(CC(C3)C1)C2` [compound 34] the “isoTOP-ABPP reactivity ratio, Q9NYL2_C22” value [1] was 0.8 and the “isoTOP-ABPP reactivity ratio, P24752_C119” value ([2]; in-vitro_ramos_231) was 0.8.
With `O=C(CCl)N1CCc2cc(Br)ccc21` [compound 50] the “isoTOP-ABPP reactivity profile ratio, P24752_C119” value ([2]; in-vitro_ramos_231) was 2.1.
With `N#CC(=Cc1ccc(-c2ccccc2Cl)o1)C(N)=O` [compound 42] the “isoTOP-ABPP reactivity profile ratio, P24752_C119” value ([2]; in-vitro_ramos) was 0.8.
For `COc1ccccc1OCCNC(=O)CCl` [compound 28], the “isoTOP-ABPP ratio (reactivity profile), Q14790_C360” value (“isoTOP-ABPP ratio … Q14790_C360” for short) ([3]; 500 μm in-vitro ramos_231) was 1.1, the “isoTOP-ABPP ratio (reactivity profile), Q9NYL2_C22” value (“isoTOP-ABPP ratio … Q9NYL2_C22” below) ([1]; 500 μm in-vitro ramos_231) was 1.4 and the “isoTOP-ABPP ratio (reactivity profile), P24752_C119” value ([2]; 500 μm in-vitro ramos) was 1.1. The “isoTOP-ABPP ratio (reactivity profile), P24752_C119” value ([2]; 500 μm in-vitro ramos_231) was 1.1.
For `CC(Br)C(=O)Nc1cc(C(F)(F)F)cc(C(F)(F)F)c1` (stereo not shown) [compound 24], the “isoTOP-ABPP ratio … Q14790_C360” value ([3]; 500 μm in-vitro ramos) was 1.4, the “isoTOP-ABPP ratio (reactivity profile), Q15910_C503” value ([4]; 500 μm in-vitro ramos) was 1.3 and the “isoTOP-ABPP ratio (reactivity profile), P24752_C119” value ([2]; 500 μm in-vitro ramos) was 1.3.
For `Cc1ccc(C=C(C#N)C(=O)NCCN2CCOCC2)cc1` [compound 41], the “isoTOP-ABPP reactivity ratio, Q14790_C360” value ([3]; in-vitro_ramos) was 0.8, the “isoTOP-ABPP reactivity ratio, Q14790_C360” value ([3]; in-vitro_ramos_231) was 1.0 and the “isoTOP-ABPP reactivity ratio, Q9NYL2_C22” value [1] was 1.5. The “isoTOP-ABPP reactivity ratio, P24752_C119” value ([2]; in-vitro_ramos) was 0.8 and the “isoTOP-ABPP reactivity ratio, P24752_C119” value ([2]; in-vitro_ramos_231) was 1.0.
In the case of `O=C(CCl)NC(=O)NC12CC3CC(CC(C3)C1)C2` [compound 12], the “isoTOP-ABPP ratio P24752_C119” value [2]; 231 is reported as 1.0 and the “isoTOP-ABPP ratio P24752_C119” value ([2]; ramos) is reported as 0.7.
`COc1cc(NC(=O)CCl)cc(OC)c1` [compound 43] was tested, and the “isoTOP-ABPP reactivity profile ratio, Q15910_C503” value ([4]; 500 μm) was 20.0, the “isoTOP-ABPP reactivity profile ratio, Q9NYL2_C22” value [1] was 2.9 and the “isoTOP-ABPP reactivity profile ratio, P24752_C119” value ([2]; in-vitro_ramos) was 1.1. The “isoTOP-ABPP reactivity profile ratio, P24752_C119” value ([2]; in-vitro_ramos_231) was 1.8.
For `O=C(CCl)N1CCOCC1` [compound 22], the “isoTOP-ABPP ratio … Q9NYL2_C22” value ([1]; 500 μm in-vitro ramos_231) was 1.0, the “isoTOP-ABPP ratio (reactivity profile), P24752_C119” value ([2]; 500 μm in-vitro ramos) was 0.8 and the “isoTOP-ABPP ratio (reactivity profile), P24752_C119” value ([2]; 500 μm in-vitro ramos_231) was 1.0.
`CC(C)(C)c1cc(NC(=O)CCl)on1` [compound 32] was tested, and the “isoTOP-ABPP reactivity ratio, Q15910_C503” value ([4]; 500 μm, in-vitro_ramos) was 1.7, the “isoTOP-ABPP reactivity ratio, Q9NYL2_C22” value [1] was 2.1 and the “isoTOP-ABPP reactivity ratio, P24752_C119” value ([2]; in-vitro_ramos) was 1.3. For the same compound, the “isoTOP-ABPP reactivity ratio, P24752_C119” value ([2]; in-vitro_ramos_231) was 1.7.
With `O=C(CCl)Nc1ccc(-c2ccccc2)cc1` [compound 52] the “isoTOP-ABPP reactivity profile ratio, Q15910_C503” value ([4]; 500 μm) was 0.9, the “isoTOP-ABPP reactivity profile ratio, P24752_C119” value ([2]; in-vitro_ramos) was 0.8 and the “isoTOP-ABPP reactivity profile ratio, P24752_C119” value ([2]; in-vitro_ramos_231) was 1.4.
In the case of `C=CC(=O)N1CCC(Cc2ccccc2)CC1` [compound 53], the “isoTOP-ABPP reactivity profile ratio, P24752_C119” value ([2]; in-vitro_ramos) is reported as 0.7 and the “isoTOP-ABPP reactivity profile ratio, P24752_C119” value ([2]; in-vitro_ramos_231) is reported as 0.9.
For `O=C(/C=C/c1ccccc1)Nc1cc(C(F)(F)F)cc(C(F)(F)F)c1` [compound 26], the “isoTOP-ABPP ratio (reactivity profile), P24752_C119” value ([2]; 500 μm in-vitro ramos) was 1.0.
For `O=C(CCl)Nc1cccc2ncccc12` [compound 51], the “isoTOP-ABPP reactivity profile ratio, P24752_C119” value ([2]; in-vitro_ramos) was 0.9 and the “isoTOP-ABPP reactivity profile ratio, P24752_C119” value ([2]; in-vitro_ramos_231) was 0.8.
In the case of `CC1CCc2ccccc2N1C(=O)CCl` (stereo not shown) [compound 45], the “isoTOP-ABPP reactivity profile ratio, Q9NYL2_C22” value [1] is reported as 20.0 and the “isoTOP-ABPP reactivity profile ratio, P24752_C119” value ([2]; in-vitro_ramos_231) is reported as 12.4.
In the case of `C=CC(=O)N(Cc1cccnc1)c1ccc(Oc2ccccc2)c(C(F)(F)F)c1` [compound 15], the “isoTOP-ABPP ratio, Q15910_C503” value ([4]; 500 μM, invitro, 231) is reported as 0.8, the “isoTOP-ABPP ratio P24752_C119” value [2]; 231 is reported as 1.0 and the “isoTOP-ABPP ratio (reactivity profile), P24752_C119” value ([2]; 500 μm in-vitro ramos) is reported as 1.2.
For `CCN(CC)c1ccc(S(N)(=O)=O)cc1NC(=O)CCl` [compound 30], the “isoTOP-ABPP ratio … Q14790_C360” value ([3]; 500 μm in-vitro ramos) was 2.0, the “isoTOP-ABPP reactivity ratio, Q14790_C360” value ([3]; in-vitro_ramos) was 5.2 and the “isoTOP-ABPP ratio … Q9NYL2_C22” value ([1]; 500 μm in-vitro ramos) was 1.1. The “isoTOP-ABPP ratio (reactivity profile), P24752_C119” value ([2]; 500 μm in-vitro ramos) was 0.7 and the “isoTOP-ABPP reactivity ratio, P24752_C119” value ([2]; in-vitro_ramos) was 0.9.
`C=CC(=O)N1CCC(c2noc3ccc(F)cc23)CC1` [compound 37] was tested, and the “isoTOP-ABPP reactivity ratio, Q14790_C360” value ([3]; in-vitro_ramos) was 1.0 and the “isoTOP-ABPP reactivity ratio, P24752_C119” value ([2]; in-vitro_ramos) was 0.8.
With `C=CC(=O)Nc1cc(C)c(Br)cc1C` [compound 40] the “isoTOP-ABPP reactivity ratio, P24752_C119” value ([2]; in-vitro_ramos) was 0.9 and the “isoTOP-ABPP reactivity ratio, P24752_C119” value ([2]; in-vitro_ramos_231) was 0.8.
`O=C(CCl)Nc1ccccc1C1CCCCCC1` [compound 35] was tested, and the “isoTOP-ABPP reactivity ratio, Q14790_C360” value ([3]; in-vitro_ramos) was 1.3, the “isoTOP-ABPP reactivity ratio, P24752_C119” value ([2]; in-vitro_ramos) was 1.0 and the “isoTOP-ABPP reactivity ratio, P24752_C119” value ([2]; in-vitro_ramos_231) was 0.9.
With `O=C(CCl)NC1C(O)OC(CO)C(O)C1O` (mixture of isomers) [compound 44] the “isoTOP-ABPP reactivity profile ratio, Q9NYL2_C22” value [1] was 0.8 and the “isoTOP-ABPP reactivity profile ratio, P24752_C119” value ([2]; in-vitro_ramos_231) was 0.8.
With `C=CC(=O)N(Cc1cccnc1)c1cc(C(F)(F)F)cc(C(F)(F)F)c1` [compound 31] the “isoTOP-ABPP reactivity ratio, P24752_C119” value ([2]; in-vitro_ramos) was 0.7 and the “isoTOP-ABPP reactivity ratio, P24752_C119” value ([2]; in-vitro_ramos_231) was 1.3.
